Source: ChEMBL document CHEMBL1131855, “Nonpeptidic SH2 inhibitors of the tyrosine kinase ZAP-70” (Bioorg Med Chem Lett, 1999)

Legend:
[1] = target: Proto-oncogene tyrosine-protein kinase Src (Homo sapiens, UniProt P12931); experiment: Affinity for Src protein tyrosine kinase
[2] = target: Tyrosine-protein kinase SYK (Homo sapiens, UniProt P43405); experiment: Affinity for Syk protein tyrosine kinase
[3] = target: T1, Tyrosine-protein kinase ZAP-70 (Homo sapiens, UniProt P43403); experiment: Affinity for Zeta-chain (TCR) associated protein kinase 70 kDa (ZAP70)
T1 sequence (P43403 whole entry): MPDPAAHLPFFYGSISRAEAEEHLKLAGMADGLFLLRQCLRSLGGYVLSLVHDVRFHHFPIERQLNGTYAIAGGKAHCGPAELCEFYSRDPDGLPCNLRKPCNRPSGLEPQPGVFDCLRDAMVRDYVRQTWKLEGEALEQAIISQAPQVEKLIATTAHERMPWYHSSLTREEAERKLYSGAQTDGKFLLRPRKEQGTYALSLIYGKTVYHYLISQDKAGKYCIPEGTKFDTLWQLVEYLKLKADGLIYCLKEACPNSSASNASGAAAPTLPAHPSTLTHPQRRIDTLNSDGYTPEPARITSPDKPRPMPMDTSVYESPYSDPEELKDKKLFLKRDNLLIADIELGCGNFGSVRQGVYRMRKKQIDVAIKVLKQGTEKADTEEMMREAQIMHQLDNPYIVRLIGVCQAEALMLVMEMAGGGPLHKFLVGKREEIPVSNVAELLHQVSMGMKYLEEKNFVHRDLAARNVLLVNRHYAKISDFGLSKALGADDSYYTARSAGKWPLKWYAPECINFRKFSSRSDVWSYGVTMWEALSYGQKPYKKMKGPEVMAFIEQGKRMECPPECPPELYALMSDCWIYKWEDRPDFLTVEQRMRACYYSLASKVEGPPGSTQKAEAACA

Sequence of Proto-oncogene tyrosine-protein kinase Src (P12931 2-536 limits assumed): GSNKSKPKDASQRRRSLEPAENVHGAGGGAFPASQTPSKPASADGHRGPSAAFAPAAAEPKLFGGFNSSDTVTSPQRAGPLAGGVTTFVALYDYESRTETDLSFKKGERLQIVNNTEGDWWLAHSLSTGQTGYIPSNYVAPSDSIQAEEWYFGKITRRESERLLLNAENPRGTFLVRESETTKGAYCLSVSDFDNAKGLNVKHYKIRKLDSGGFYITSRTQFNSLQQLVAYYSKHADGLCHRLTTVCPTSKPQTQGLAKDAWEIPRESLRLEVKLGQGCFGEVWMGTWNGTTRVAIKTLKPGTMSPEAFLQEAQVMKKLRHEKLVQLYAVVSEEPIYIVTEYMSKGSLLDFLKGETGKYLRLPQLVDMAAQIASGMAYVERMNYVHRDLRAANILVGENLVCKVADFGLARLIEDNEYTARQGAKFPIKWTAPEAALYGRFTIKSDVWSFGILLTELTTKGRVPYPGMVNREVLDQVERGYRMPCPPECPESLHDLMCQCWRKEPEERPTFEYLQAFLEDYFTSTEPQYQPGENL

## C[C@H](NC(=O)[C@@H](CC(=O)O)Cc1ccc(OP(=O)(O)O)cc1)c1nc(Cc2ccc(Cl)c(Cl)c2)no1
[1]
  IC50: 53 µM
[2]
  IC50: > 500 µM

## O=C(O)C[C@@H](Cc1ccc(OP(=O)(O)O)cc1)C(=O)N[C@@H](CO)c1nc(Cc2ccc(Cl)c(Cl)c2)no1
[1]
  IC50: 54 µM
[2]
  IC50: > 500 µM

## CC(=O)N[C@@H](Cc1ccc(OP(=O)(O)O)cc1)C(=O)N[C@@H](C)c1nc(Cc2ccc(C(F)(F)F)cc2)no1
[1]
  IC50: 72 µM

## CC(=O)N[C@@H](Cc1ccc(OP(=O)(O)O)cc1)C(=O)N[C@@H](C)c1nc(Cc2ccc(Cl)c(Cl)c2)no1
[1]
  IC50: 210 µM

## C[C@H](NC(=O)Nc1cccc2cc(OP(=O)(O)O)ccc12)c1nc(Cc2ccc(Cl)c(Cl)c2)no1
[1]
  IC50: 198 µM
[2]
  IC50: 310 µM

## C[C@H](NC(=O)[C@H](Cc1ccc(OP(=O)(O)O)cc1)CS(=O)(=O)C(C)(C)C)c1nc(Cc2ccc(C(F)(F)F)cc2)no1
[1]
  IC50: 205 µM
[2]
  IC50: > 500 µM

## C[C@H](NC(=O)c1cc2cc(OP(=O)(O)O)ccc2[nH]1)c1nc(Cc2ccc(Cl)c(Cl)c2)no1
[1]
  IC50: 81 µM
[2]
  IC50: 434 µM

## C[C@H](NC(=O)CCc1ccc(OP(=O)(O)O)cc1)c1nc(Cc2ccc(Cl)c(Cl)c2)no1
[1]
  IC50: 459 µM
[3]
  IC50: 198 µM
[2]
  IC50: > 500 µM

## C[C@H](NC(=O)[C@@H](CC(=O)O)Cc1ccc(OP(=O)(O)O)cc1)c1nc(Cc2ccc(C(F)(F)F)cc2)no1
[1]
  IC50: 102 µM
[2]
  IC50: > 500 µM
